Data: patent US20090170838A1, “Bicycloheteroaryl compounds as P2X7 modulators and uses thereof” (Renovis, Inc., priority 2005, published 2009)

Biological target: T1, P2X7 receptor (Homo sapiens, UniProt Q99572)
T1 construct: host or cells: THP-1 cells differentiated with LPS and IFN-γ
T1 sequence (Q99572 1-595): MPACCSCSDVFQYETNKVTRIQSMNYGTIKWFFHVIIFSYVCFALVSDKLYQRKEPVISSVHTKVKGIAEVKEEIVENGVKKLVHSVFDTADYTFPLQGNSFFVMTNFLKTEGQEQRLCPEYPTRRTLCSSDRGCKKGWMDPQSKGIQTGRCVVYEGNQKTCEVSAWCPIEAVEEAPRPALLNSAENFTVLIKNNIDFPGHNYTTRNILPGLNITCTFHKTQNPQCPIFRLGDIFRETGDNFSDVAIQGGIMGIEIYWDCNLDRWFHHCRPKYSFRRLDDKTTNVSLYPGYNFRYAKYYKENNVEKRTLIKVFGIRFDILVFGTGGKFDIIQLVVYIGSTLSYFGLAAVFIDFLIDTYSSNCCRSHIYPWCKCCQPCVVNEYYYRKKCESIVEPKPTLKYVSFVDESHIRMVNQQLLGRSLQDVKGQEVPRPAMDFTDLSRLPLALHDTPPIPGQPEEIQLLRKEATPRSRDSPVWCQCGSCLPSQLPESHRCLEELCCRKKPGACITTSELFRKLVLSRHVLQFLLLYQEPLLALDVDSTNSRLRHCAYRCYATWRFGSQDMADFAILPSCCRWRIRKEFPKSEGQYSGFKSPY
Assay: IL-1β release assay (BzATP-stimulated, LPS/IFN-γ differentiated THP-1 cells, ELISA)
Assay type: cell-based
Conditions: at 0.1 μM (asterisk symbols)
Experimental: THP-1 cells (ATCC Cat # 285-IF-100) are plated in 96 well plates at a concentration of 200,000 cells per well and allowed to differentiate in RPMI-1640 media (ATCC Cat # 30-2001) containing 10% FBS, 100 IU/mL penicillin, 100 ug/mL streptomycin, 100 ng/mL LPS and 100 ng/mL IFN-γ for 16 hours. Following differentiation, the cells are treated for an additional 2 hours in RPMI-1640 media containing 100 IU/mL penicillin, 100 ug/mL streptomycin and fresh LPS at 100 ng/mL. The cells are then pretreated for 30 minutes with the compound of interest at the appropriate concentration in RPMI media containing 100 IU/mL penicillin, 100 ug/mL streptomycin. Following the pretreatment 2′,3′-O-(4-benzoylbenzoyl)-adenosine 5′-triphosphate (Sigma Aldrich Cat# B6396) is added to a final concentration of 250 uM and the cells incubated for an additional 45 minutes. 30 uL of cell supernatant is then collected and […] levels determined via ELISA (R&D systems Cat. # HSLB50) according to manufacturer's recommendations using the Tecan Safire plate reader. Background adjusted IL-1β levels of drug treated and non-treated cells are used to calculate the percent inhibition.

Work on `O=C(CC12CC3CC(CC(C3)C1)C2)Nc1cccc2c1CCN(Cc1ccccn1)C2=O` [Compound 795] yielded an inhibition at 0.1 µM of no less than 75%.
`O=C(CC12CC3CC(CC(C3)C1)C2)Nc1cccc2c1CCN(CC1COCCO1)C2=O` (stereo not shown) [Compound 796] gave an inhibition at 0.1 µM of no less than 75%.
`Cc1cc(CN2CCc3c(NC(=O)CC45CC6CC(CC(C6)C4)C5)cccc3C2=O)nn1C` [Compound 797] showed an inhibition at 0.1 µM of no less than 75%.
With `O=C(CC12CC3CC(CC(C3)C1)C2)Nc1cccc2c1CCN(Cc1c(F)cccc1F)C2=O` [Compound 798] the inhibition at 0.1 µM was no less than 75%.
With `O=C(CC12CC3CC(CC(C3)C1)C2)Nc1cccc2c1CCN(Cc1ccc(F)c(F)c1)C2=O` [Compound 799] the inhibition at 0.1 µM was no less than 75%.
Work on `CN(C)CCN1CCc2c(NC(=O)CC34CC5CC(CC(C5)C3)C4)cccc2C1=O` [Compound 800] yielded an inhibition at 0.1 µM of 50 to 75%.
`Cc1cc(CN2CCc3c(NC(=O)CC45CC6CC(CC(C6)C4)C5)cccc3C2=O)no1` [Compound 801] was tested, and the inhibition at 0.1 µM was no less than 75%.
With `O=C(CC12CC3CC(CC(C3)C1)C2)Nc1cccc2c1CCN(CCc1c[nH]cn1)C2=O` [Compound 802] the inhibition at 0.1 µM was no less than 75%.
`CC12CC3CC(C)(C1)CC(CC(=O)Nc1cccc4c(=O)n(Cc5ccc6c(c5)OCCO6)ccc14)(C3)C2` [Compound 803] gave an inhibition at 0.1 µM of no less than 75%.
`Cn1ccc2c(NC(=O)CC34CC5CC(CC(C5)C3)C4)cccc2c1=O` [Compound 805, adamantyl-N-(2-methyl-1-oxo-1,2-dihydroisoquinolin-5-yl)acetamide] gave an inhibition at 0.1 µM of no less than 75%.
`CC1CNC(CN2CCc3c(NC(=O)CC45CC6CC(CC(C6)C4)C5)cccc3C2=O)CN1` (stereo not shown) [Compound 806] showed an inhibition at 0.1 µM of no less than 75%.
`CC12CC3CC(C)(C1)CC(CC(=O)Nc1cccc4c1CCN(Cc1ccccn1)C4=O)(C3)C2` [Compound 807] gave an inhibition at 0.1 µM of 0 to 25%.
Compound `O=C(CC12CC3CC(CC(C3)C1)C2)Nc1cccc2c(=O)n(CCc3c[nH]cn3)ccc12` [Compound 808] has an inhibition at 0.1 µM of no less than 75%.
`O=C(CC12CC3CC(CC(C3)C1)C2)Nc1cccc2c(=O)n(CC3CCCN3)ccc12` (stereo not shown) [Compound 809] showed an inhibition at 0.1 µM of no less than 75%.
`O=C(CC12CC3CC(CC(C3)C1)C2)Nc1cccc2c(=O)n(C[C@@H]3CCCN3)ccc12` [Compound 810] was tested, and the inhibition at 0.1 µM was no less than 75%.
`O=C(CC12CC3CC(CC(C3)C1)C2)Nc1cccc2c(=O)n(C[C@H]3CCCN3)ccc12` [Compound 811] was tested, and the inhibition at 0.1 µM was no less than 75%.
Compound `CC12CC3CC(C)(C1)CC(CC(=O)Nc1cccc4c1CCN(CC1CCOCC1)C4=O)(C3)C2` [Compound 813] has an inhibition at 0.1 µM of no less than 75%.
For `CC12CC3CC(C)(C1)CC(CC(=O)Nc1cccc4c1CCN(Cc1ccc5c(c1)OCO5)C4=O)(C3)C2` [Compound 814], the inhibition at 0.1 µM was no less than 75%.
For `CC12CC3CC(C)(C1)CC(CC(=O)Nc1cccc4c1CCN(CCN1CCOCC1)C4=O)(C3)C2` [Compound 815], the inhibition at 0.1 µM was 50 to 75%.
Compound `O=C(Nc1cccc2c(=O)n(Cc3ccccc3)ccc12)C12CC3CC(CC(F)(C3)C1)C2` [Compound 816, 3-Fluoro-Adamantan-1-yl-N-(2-benzyl-1-oxo-1,2-dihydro-isoquinolin-5-yl)-formamide] has an inhibition at 0.1 µM of 25 to 50%.
Work on `O=C(CC12CC3CC(CC(C3)C1)C2)Nc1cccc2c1CCN(CCN1CCOCC1)C2=O` [Compound 817] yielded an inhibition at 0.1 µM of no less than 75%.
Compound `C[C@@H](c1ccccc1)n1ccc2c(NC(=O)CC34CC5CC(C)(CC(C)(C5)C3)C4)cccc2c1=O` [Compound 818] has an inhibition at 0.1 µM of 50 to 75%.
Work on `CC12CC3CC(C)(C1)CC(CC(=O)Nc1cccc4c(=O)n(Cc5ccc(F)c(F)c5)ccc14)(C3)C2` [Compound 819] yielded an inhibition at 0.1 µM of 50 to 75%.
For `CC12CC3CC(C)(C1)CC(CC(=O)Nc1cccc4c(=O)n(CC5CCOCC5)ccc14)(C3)C2` [Compound 820], the inhibition at 0.1 µM was no less than 75%.
In the case of `CC12CC3CC(C)(C1)CC(CC(=O)Nc1cccc4c(=O)n(Cc5ccc6c(c5)OCO6)ccc14)(C3)C2` [Compound 821], the inhibition at 0.1 µM was no less than 75%.
With `CC12CC3CC(C)(C1)CC(CC(=O)Nc1cccc4c1CCN(CCCN1CCOCC1)C4=O)(C3)C2` [Compound 822] the inhibition at 0.1 µM was no less than 75%.
Compound `CC12CC3CC(C)(C1)CC(CC(=O)Nc1cccc4c1CCN(Cc1ccc5c(c1)OCCO5)C4=O)(C3)C2` [Compound 823] has an inhibition at 0.1 µM of no less than 75%.
With `O=C(CC12CC3CC(CC(C3)C1)C2)Nc1cccc2c(=O)n(CCCn3ccnc3)ccc12` [Compound 824] the inhibition at 0.1 µM was 50 to 75%.
`Cc1cccnc1CN1CCc2c(NC(=O)CC34CC5CC(CC(C5)C3)C4)cccc2C1=O` [Compound 825] was tested, and the inhibition at 0.1 µM was no less than 75%.
With `O=C(CC12CC3CC(CC(C3)C1)C2)Nc1cccc2c(=O)n(C(CO)CO)ccc12` [Compound 826] the inhibition at 0.1 µM was no less than 75%.
`O=C(CC12CC3CC(CC(C3)C1)C2)Nc1cccc2c1CCN(C(CO)CO)C2=O` [Compound 827] was tested, and the inhibition at 0.1 µM was no less than 75%.
`NC(=O)CN1CCc2c(NC(=O)CC34CC5CC(CC(C5)C3)C4)cccc2C1=O` [Compound 828] was tested, and the inhibition at 0.1 µM was no less than 75%.
In the case of `NC(=O)CCn1ccc2c(NC(=O)CC34CC5CC(CC(C5)C3)C4)cccc2c1=O` [Compound 829], the inhibition at 0.1 µM was no less than 75%.
Compound `O=C(CC12CC3CC(CC(C3)C1)C2)Nc1cccc2c1CCN(CC1CCOCC1)C2=O` [Compound 833] has an inhibition at 0.1 µM of no less than 75%.
Compound `CCN1CCCC1CN1CCc2c(NC(=O)CC34CC5CC(CC(C5)C3)C4)cccc2C1=O` (stereo not shown) [Compound 834] has an inhibition at 0.1 µM of no less than 75%.
`CC12CC3CC(C)(C1)CC(CC(=O)Nc1cccc4c(=O)n(Cc5c(F)cccc5F)ccc14)(C3)C2` [Compound 835] gave an inhibition at 0.1 µM of no less than 75%.
Compound `O=C(CC12CC3CC(CC(C3)C1)C2)Nc1cccc2c1CCN(CCCn1ccnc1)C2=O` [Compound 836] has an inhibition at 0.1 µM of no less than 75%.
`CC(c1cccnc1)n1ccc2c(NC(=O)CC34CC5CC(CC(C5)C3)C4)cccc2c1=O` (stereo not shown) [Compound 837] gave an inhibition at 0.1 µM of no less than 75%.
Compound `CC(c1ccccc1)N1CCc2c(NC(=O)CC34CC5CC(C)(CC(C)(C5)C3)C4)cccc2C1=O` (stereo not shown) [Compound 838] has an inhibition at 0.1 µM of no less than 75%.
In the case of `CC12CC3CC(C)(C1)CC(CC(=O)Nc1cccc4c1CCN(Cc1ccccc1F)C4=O)(C3)C2` [Compound 839], the inhibition at 0.1 µM was 50 to 75%.
For `CC12CC3CC(C)(C1)CC(CC(=O)Nc1cccc4c1CCN(Cc1c(F)cccc1F)C4=O)(C3)C2` [Compound 840], the inhibition at 0.1 µM was no less than 75%.
With `CC12CC3CC(C)(C1)CC(CC(=O)Nc1cccc4c(=O)[nH]ccc14)(C3)C2` [Compound 841] the inhibition at 0.1 µM was no less than 75%.
Work on `CN1CCN(CCN2CCc3c(NC(=O)CC45CC6CC(CC(C6)C4)C5)cccc3C2=O)CC1` [Compound 842] yielded an inhibition at 0.1 µM of no less than 75%.
For `CC(C)(CN1CCOCC1)N1CCc2c(NC(=O)CC34CC5CC(CC(C5)C3)C4)cccc2C1=O` [Compound 843], the inhibition at 0.1 µM was no less than 75%.
With `O=C(CC12CC3CC(CC(C3)C1)C2)Nc1cccc2c(=O)n(CCO)ccc12` [Compound 845] the inhibition at 0.1 µM was no less than 75%.
`CC(C)(C)OC(=O)N1CCCC1CN1CCc2c(NC(=O)CC34CC5CC(CC(C5)C3)C4)cccc2C1=O` (stereo not shown) [Compound 857] showed an inhibition at 0.1 µM of no less than 75%.
`CC(c1ccccn1)n1ccc2c(NC(=O)CC34CC5CC(CC(C5)C3)C4)cccc2c1=O` (stereo not shown) [Compound 858] was tested, and the inhibition at 0.1 µM was no less than 75%.
In the case of `CC(c1ccncc1)n1ccc2c(NC(=O)CC34CC5CC(CC(C5)C3)C4)cccc2c1=O` (stereo not shown) [Compound 859], the inhibition at 0.1 µM was no less than 75%.
With `CC1CN(CCn2ccc3c(NC(=O)CC45CC6CC(CC(C6)C4)C5)cccc3c2=O)CC(C)O1` (stereo not shown) [Compound 869] the inhibition at 0.1 µM was 50 to 75%.
In the case of `CCN(CC)CCn1ccc2c(NC(=O)CC34CC5CC(CC(C5)C3)C4)cccc2c1=O` [Compound 870], the inhibition at 0.1 µM was no less than 75%.
With `CC(C)Cn1ccc2c(NC(=O)CC34CC5CC(CC(C5)C3)C4)cccc2c1=O` [Compound 871] the inhibition at 0.1 µM was no less than 75%.
`O=C(CC12CC3CC(CC(C3)C1)C2)Nc1cccc2c1CCN(CC1COc3ccccc3O1)C2=O` (stereo not shown) [Compound 872] was tested, and the inhibition at 0.1 µM was no less than 75%.
`O=C(CC12CC3CC(CC(C3)C1)C2)Nc1cccc2c(=O)n(Cc3ccoc3)ccc12` [Compound 873] was tested, and the inhibition at 0.1 µM was no less than 75%.
`O=C(CC12CC3CC(CC(C3)C1)C2)Nc1cccc2c1CCNC2=O` [Compound 874] showed an inhibition at 0.1 µM of no less than 75%.
Compound `O=C(CC12CC3CC(CC(C3)C1)C2)Nc1cccc2c1CCN(CC1CCNCC1)C2=O` [Compound 875] has an inhibition at 0.1 µM of no less than 75%.
With `O=C(CC12CC3CC(CC(C3)C1)C2)Nc1cccc2c1CCN(CCCN1CCOCC1)C2=O` [Compound 876] the inhibition at 0.1 µM was no less than 75%.
For `CN1CCN(CCCN2CCc3c(NC(=O)CC45CC6CC(CC(C6)C4)C5)cccc3C2=O)CC1` [Compound 878], the inhibition at 0.1 µM was no less than 75%.
`CN1CCCC1CCN1CCc2c(NC(=O)CC34CC5CC(CC(C5)C3)C4)cccc2C1=O` (stereo not shown) [Compound 879] showed an inhibition at 0.1 µM of no less than 75%.
